Measured values published in ChEMBL document CHEMBL1124642 (1989).
Calls of active or inactive are those of the source. The rule behind the calls is not given here.

How the values were obtained:
Cavia porcellus = species: Cavia porcellus; test: Effective dose for guinea pig ileum contractions; format: functional; conditions: for EC50: read-out: ED50 (the source's name)
[1] = biological target: Muscarinic acetylcholine receptor (Homo sapiens) (UniProt P20309+P08173+P11229+P08172+P08912); test: Tested in vitro for agonistic effect on Muscarinic acetylcholine receptor of guinea pig ileum; IA = Inactive; format: functional, tissue-based; conditions: Cavia porcellus, target entry is the homologue from another species

Row | EC50 (Cavia porcellus) | SMILES | further results
1 | 180 µM | CCN1C(=O)OCC1Cc1c[nH]cn1 (stereo not given) | –
2 | 14 µM | CCN1C(=O)OCC1Cc1cn(C)cn1 (stereo not given) | –
3 | – | CCN1C(=O)OCC1Cc1cn(Cc2ccccc2)c[n+]1C (stereo not given) | ED50 [1]: inactive
4 | – | CCN1C(=O)OCC1Cc1cn(Cc2ccccc2)cn1 (stereo not given) | ED50 (Cavia porcellus): inactive
5 | 1 µM | CCN1C(=O)OCC1Cc1cncn1C (stereo not given) | –
